pIC50: −log10 of the molar value. Where two headings read alike, the source gives them in different places.
Legend:
[1] = test system: Parkinson's disease patients; details: treatment of Parkinson's disease; cited from earlier work
[2] = test system: monkeys treated with MPTP; details: cited from earlier work
[3] = test system: human subjects; details: cited from earlier work
[4] = test system: male beagle dogs; details: based on dog data
[5] = test system: rodents; details: in vivo
[6] = test system: dogs; details: single oral dose; cited from earlier work
[7] = test system: restless legs syndrome patients; details: treatment of restless legs syndrome; cited from earlier work
[8] = test system: monkeys; details: single oral dose; cited from earlier work
[9] = cited from earlier work
[10] = test system: monkeys treated with MPTP; details: monkey, in vivo
[11] = molecular target: D5 dopamine receptor (Homo sapiens, UniProt P21918)
Method: (§1) These concentrations were tested in cell lines expressing select human cloned dopamine receptors (D2S, D3).

[12] = molecular target: D1 dopamine receptor (Homo sapiens, UniProt P21728)
Method: as §1

[13] = test system: rodents; details: single oral dose; cited from earlier work
[14] = molecular target: D2 dopamine receptor; details: read-out: D2 binding, IC50, cited from earlier work
[15] = Lit.* Schneider & Mierau 1987 J. Med. Chem. 30: 494-498
[16] = Lit.** Wong & Shrikhande 2003 Society for Neuroscience Abstracts

D1 dopamine receptor, sequence (P21728 whole entry): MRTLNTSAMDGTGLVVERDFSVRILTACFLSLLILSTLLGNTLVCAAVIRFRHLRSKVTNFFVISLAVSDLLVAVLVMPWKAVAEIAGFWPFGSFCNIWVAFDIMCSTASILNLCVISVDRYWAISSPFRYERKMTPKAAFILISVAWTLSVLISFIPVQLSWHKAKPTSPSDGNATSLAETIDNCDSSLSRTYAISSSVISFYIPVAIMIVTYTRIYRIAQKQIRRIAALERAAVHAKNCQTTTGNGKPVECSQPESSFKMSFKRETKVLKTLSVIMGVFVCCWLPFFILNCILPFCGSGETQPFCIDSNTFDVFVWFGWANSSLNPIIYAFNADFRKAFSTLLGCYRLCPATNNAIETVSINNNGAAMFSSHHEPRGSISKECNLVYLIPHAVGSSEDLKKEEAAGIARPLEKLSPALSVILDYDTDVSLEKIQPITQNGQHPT
D5 dopamine receptor, sequence (P21918 whole entry): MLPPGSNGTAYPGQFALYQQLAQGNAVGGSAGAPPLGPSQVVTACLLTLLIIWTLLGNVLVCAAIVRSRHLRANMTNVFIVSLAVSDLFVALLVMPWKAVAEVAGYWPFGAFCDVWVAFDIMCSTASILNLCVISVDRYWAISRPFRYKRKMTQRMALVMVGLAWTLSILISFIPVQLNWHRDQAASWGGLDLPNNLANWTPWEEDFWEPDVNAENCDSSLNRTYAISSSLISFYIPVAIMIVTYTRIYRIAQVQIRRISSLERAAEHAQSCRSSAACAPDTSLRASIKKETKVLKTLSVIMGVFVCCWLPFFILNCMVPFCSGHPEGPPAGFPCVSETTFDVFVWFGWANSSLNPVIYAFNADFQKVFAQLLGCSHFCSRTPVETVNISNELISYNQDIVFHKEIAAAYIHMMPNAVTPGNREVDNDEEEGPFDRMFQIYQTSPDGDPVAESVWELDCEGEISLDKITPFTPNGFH

Row | Structure (SMILES) | lowest effective oral dose with a significant effect versus placebo [1] [mg/day] | lowest effective oral dose [2] [mg/kg] | dose shown to cause somnolence ([3]; human subjects) [mg] | starting daily dose not tolerated ([3]; naïve patient) | human equivalent dose of the NOAEL for a 70 kg individual [4] [mg] | human equivalence dose of the MTD ([4]; 70 kg human subject) [mg] | human dose equivalent to the lethal dose in rodents [5] [mg/kg] | human dose equivalent to the lethal dose in rodents, 70 kg individual [5] [mg] | dose at which vomiting occurred (and above) [6] [mg/kg] | lowest effective dose with a significant effect versus placebo [7] [mg/day] | dose at which major excitation was displayed [8] [mg/kg] | MRTD ([9]; FDA MRTD database) [mg/kg/day] | MRTD ([9]; for a 70 lb. person) [mg/day] | human dose equivalent to the lowest effective oral dose in monkeys [10] [mg/kg] | human dose equivalent to the lowest effective oral dose in monkeys, 70 kg individual [10] [mg] | interaction with D5 dopamine receptor [11] | interaction with D1 dopamine receptor [12] | doses at which deaths occurred (and above) [13] [mg/kg] | pIC50 [14, 15] | pIC50 [14, 16]
1 | CCCN[C@H]1CCc2nc(N)sc2C1 [(S)-pramipexole, (6S)-4,5,6,7-tetrahydro-N6-propyl-2,6-benzothiazole-diamine] | 1.1 | […] | 1.5 | greater than 0.20 mg | 0.05 | 0.30 | 7 to 12 | 500 to 850 | ≥ 0.0007 | 0.25 | 3.5 | 0.1 | 7.0 | 0.017 | 1.2 | no significant interaction | no significant interaction | 70 to 105 |  | 

Source: patent publication US9849116B2 (KNOPP BIOSCIENCES LLC, priority 2008, dated 2017)
